Data: ChEMBL document CHEMBL3627596, “Discovery of Novel Inhibitor Scaffolds against the Metallo-β-lactamase VIM-2 by Surface Plasmon Resonance (SPR) Based Fragment Screening” (J Med Chem, 2015)

Key:
[1] = target: Beta-lactamase VIM-2 (Pseudomonas aeruginosa) (UniProt Q9K2N0); test: Inhibition of Pseudomonas aeruginosa 301-5473 metallo-beta-lactamase VIM-2 expressed in Escherichia coli BL21(DE3) using nitrocefin as substrate at 500 uM preincubated for 5 mins followed by substrate addition measured every 17 secs for 20 mins by microplate reader analysis relative to control
Beta-lactamase VIM-2 [2] = target: T1, Beta-lactamase VIM-2 (Pseudomonas aeruginosa, UniProt Q9K2N0); test: Binding affinity to Pseudomonas aeruginosa 301-5473 metallo-beta-lactamase VIM-2 expressed in Escherichia coli BL21(DE3) measured for 15 secs by SPR analysis
Beta-lactamase VIM-2 [3] = target: T1, Beta-lactamase VIM-2; test: Inhibition of Pseudomonas aeruginosa 301-5473 metallo-beta-lactamase VIM-2 expressed in Escherichia coli BL21(DE3) using nitrocefin as substrate preincubated for 5 mins followed by substrate addition measured every 17 secs for 20 mins by microplate reader analysis
Beta-lactamase VIM-2 [4] = target: T1, Beta-lactamase VIM-2; test: Reversible binding affinity to Pseudomonas aeruginosa 301-5473 metallo-beta-lactamase VIM-2 expressed in Escherichia coli BL21(DE3) measured for 15 secs by SPR analysis
[5] = target: Beta-lactamase VIM-2 (Pseudomonas aeruginosa) (UniProt Q9K2N0); settings: 301-5473
Description: Reversible binding affinity to Pseudomonas aeruginosa 301-5473 metallo-beta-lactamase VIM-2 expressed in Escherichia coli BL21(DE3) assessed as association constant measured for 30 secs by SPR analysis

Beta-lactamase VIM-2 [6] = target: T1, Beta-lactamase VIM-2; test: Dissociation rate constant to Pseudomonas aeruginosa 301-5473 metallo-beta-lactamase VIM-2 expressed in Escherichia coli BL21(DE3) by SPR analysis

## O=C(O)c1ccccc1C(=O)c1ccc(F)cc1
[1]
  inhibition: > 15%
Beta-lactamase VIM-2 [2]
  Kd: 9 µM
Beta-lactamase VIM-2 [3]
  IC50: 14 µM

## O=C(O)c1ccccc1C(=O)c1ccccc1 [2-BENZOYLBENZOIC ACID]
Beta-lactamase VIM-2 [3]
  IC50: 8 µM

## O=C(O)c1cncc(C#Cc2ccccc2)c1
[1]
  inhibition: > 15%
Beta-lactamase VIM-2 [2]
  Kd: 446 µM
Beta-lactamase VIM-2 [3]
  IC50: 298 µM

## CCCc1ccc(C(=O)CCC(=O)O)cc1
[1]
  inhibition: > 15%
Beta-lactamase VIM-2 [2]
  Kd: 173 µM
Beta-lactamase VIM-2 [3]
  IC50: 287 µM

## Cn1c(S)nnc1C(F)(F)F
[1]
  inhibition: > 15%
Beta-lactamase VIM-2 [2]
  Kd: 145 µM
Beta-lactamase VIM-2 [3]
  IC50: 232 µM

## N#Cc1c(C(F)(F)F)cc(-c2cccs2)nc1O
[1]
  inhibition: > 15%
Beta-lactamase VIM-2 [2]
  Kd: 229 µM
Beta-lactamase VIM-2 [3]
  IC50: 314 µM

## O=C(O)CCCc1c[nH]c2ccccc12
[1]
  inhibition: > 15%
Beta-lactamase VIM-2 [2]
  Kd: 274 µM
Beta-lactamase VIM-2 [3]
  IC50: 757 µM

## N#Cc1coc2ccccc2c1=O
[1]
  inhibition: > 15%
Beta-lactamase VIM-2 [2]
  Kd: 999 µM
Beta-lactamase VIM-2 [3]
  IC50: 1430 µM

## C[C@@H](O)[C@H]1C(=O)N2C(C(=O)O)=C(S[C@@H]3CN[C@H](C(=O)N(C)C)C3)[C@H](C)[C@H]12 [MEROPENEM]
Beta-lactamase VIM-2 [4]
  Kd: 12 µM

## O=C(O)c1ccccc1C(=O)c1ccc(Cl)cc1
Beta-lactamase VIM-2 [3]
  IC50: 12 µM

## O=C(O)CSc1ccnc2cc(Cl)ccc12
[1]
  inhibition: > 15%
Beta-lactamase VIM-2 [2]
  Kd: 264 µM
Beta-lactamase VIM-2 [3]
  IC50: 205 µM

## COC(=O)c1ccccc1C(=O)c1ccccc1
Beta-lactamase VIM-2 [3]
  IC50: > 3000 µM

## C[C@H](CS)C(=O)N1CCC[C@H]1C(=O)O [CAPTOPRIL]
[5]
  Ka: 4.2 ×10⁴ /M/s
Beta-lactamase VIM-2 [6]
  koff: 0.025 s⁻¹
Beta-lactamase VIM-2 [4]
  Kd: 0.6 µM
Beta-lactamase VIM-2 [3]
  IC50: 3.5 µM

## O=C(O)c1ccccc1Cc1ccccc1
Beta-lactamase VIM-2 [3]
  IC50: > 1000 µM

## CC(=O)c1ccccc1C(=O)O
Beta-lactamase VIM-2 [3]
  IC50: > 1000 µM
